Assay results from patent publication US12226409B2, “Treatment of hepatocellular carcinoma” (Eisai R&D Management Co., Ltd., priority 2017, dated 2025).

Tested on: patients with unresectable HCC
Test: Open-label phase 3 study, safety and side-effect profile (CTCAE v4.0)
[1] = Any grade, listed as lenvatinib

From the text: Randomization was stratified according to region (Asia-Pacific or Western regions), macroscopic portal vein invasion and/or extrahepatic spread (yes or no), Eastern Cooperative Oncology Group performance status (0 or 1), and body weight (<60 kg or ≥60 kg).
Safety assessments included recording of vital signs, hematologic and biochemical laboratory testing, urinalysis, and electrocardiography.

COc1cc2nccc(Oc3ccc(NC(=O)NC4CC4)c(Cl)c3)c2cc1C(N)=O [Lenvatinib, 4-(3-chloro-4(cyclopropylaminocarbonyl)aminophenoxy)-7-methoxy-6-quinolinecarboxamide]
TEAE: Alopecia (12 mg starting dose): 9 (2.8) n (%) | TEAE: Ascites (12 mg starting dose): 47 (14.5) n (%) | TEAE: Aspartate aminotransferase increased (12 mg starting dose): 44 (13.5) n (%) | TEAE: Asthenia (12 mg starting dose): 40 (12.3) n (%) | TEAE: Back pain (12 mg starting dose): 39 (12.0) n (%) | TEAE: Blood bilirubin increased (12 mg starting dose): 48 (14.8) n (%) | TEAE: Constipation (12 mg starting dose): 57 (17.5) n (%) | TEAE: Decreased appetite (12 mg starting dose): 112 (34.5) n (%) | TEAE: Diarrhea (12 mg starting dose): 131 (40.3) n (%) | TEAE: Dysphonia (12 mg starting dose): 85 (26.2) n (%) | TEAE: Edema peripheral (12 mg starting dose): 43 (13.2) n (%) | TEAE: Fatigue (12 mg starting dose): 99 (30.5) n (%) | TEAE: Hypertension (12 mg starting dose): 136 (41.8) n (%) | TEAE: Hypothyroidism (12 mg starting dose): 53 (16.3) n (%) | TEAE: Nausea (12 mg starting dose): 69 (21.2) n (%) | TEAE: Palmar-plantar erythrodysesthesia syndrome (12 mg starting dose): 93 (28.6) n (%) | TEAE: Platelet count decreased (12 mg starting dose): 61 (18.8) n (%) | TEAE: Proteinuria (12 mg starting dose): 80 (24.6) n (%) | TEAE: Pyrexia (12 mg starting dose): 45 (13.8) n (%) | TEAE: Rash (12 mg starting dose): 28 (8.6) n (%) | TEAE: Stomatitis (12 mg starting dose): 34 (10.5) n (%) | TEAE: Vomiting (12 mg starting dose): 55 (16.9) n (%) | TEAE: Weight decreased (12 mg starting dose): 104 (32.0) n (%) | TEAE: Dysphonia (Any grade): (23.7) % | TEAE: Proteinuria (Any grade): (24.6) % | TEAE: decreased weight (Any grade): (30.9) % | TEAE: Dysphonia [1]: 23.7% | TEAE: Hypertension [1]: 42.2% | TEAE: Hypothyroidism [1]: 16.4% | TEAE: Proteinuria [1]: 24.6% | Primary reason for discontinuation of treatment: Adverse event (Full Analysis Set): 63 (13.2) n (%) | most common adverse reactions, in order of decreasing frequency (HCC subjects): hypertension, fatigue, diarrhea, decreased appetite, arthralgia/myalgia, and decreased weight | adverse event rate adjusted by patient-years (TEAEs of grade 3 or higher): 3.2 | adverse event rate adjusted by patient-years (all TEAEs): 18.9 | Dose modification: AST increased (in vivo): 1.9% | Dose modification: ascites (in vivo): 2.1% | Dose modification: hepatic encephalopathy (in vivo): 4.2% | Dose modification: neutrophil count decreased (in vivo): 2.3% | Dose modification: pyrexia (in vivo): 2.5% | Dose modification: vomiting (in vivo): 2.5% | Dose modification: weight decreased (in vivo): 4.2% | Dose reduction/interruption: Gastrointestinal disorders (in vivo): 18.3% | Dose reduction/interruption: General disorders and administration site conditions (in vivo): 14.1% | Dose reduction/interruption: Investigations (in vivo): 17.0% | Dose reduction/interruption: Metabolism and nutrition disorders (in vivo): 10.9% | Dose reduction/interruption: PPE syndrome (in vivo): 5.3% | Dose reduction/interruption: decreased appetite (in vivo): 7.6% | Dose reduction/interruption: diarrhea (in vivo): 7.6% | Dose reduction/interruption: fatigue (in vivo): 5.7% | Dose reduction/interruption: hypertension (in vivo): 6.1% | Dose reduction/interruption: proteinuria (in vivo): 6.9% | Treatment-emergent adverse events of grade 3 or higher, patients (in vivo): 75.0% | Treatment-emergent adverse events, patients (in vivo): 98.7% | WBC count deceased, adjusted by treatment duration (in vivo): 0.25 episodes per SY | dysphonia, adjusted by treatment duration (in vivo): 0.4 episodes per SY | hepatic encephalopathy, adjusted by treatment duration (in vivo): 0.17 episodes per SY | hypothyroidism, adjusted by treatment duration (in vivo): 0.24 episodes per SY | neutrophil count decreased, adjusted by treatment duration (in vivo): 0.21 episodes per SY | proteinuria, adjusted by treatment duration (in vivo): 0.5 episodes per SY | subjects without a TEAE (in vivo): 6 subjects | AEs leading to dose reduction or interruption, subjects (unadjusted for treatment duration): 61.8% | Dose reduction/interruption: Abdominal pain (whole arm): 6 (1.3) n (%) | Dose reduction/interruption: Abdominal pain upper (whole arm): 5 (1.1) n (%) | Dose reduction/interruption: Alanine aminotransferase increased (whole arm): 6 (1.3) n (%) | Dose reduction/interruption: Anemia (whole arm): 3 (0.6) n (%) | Dose reduction/interruption: Ascites (whole arm): 10 (2.1) n (%) | Dose reduction/interruption: Aspartate aminotransferase increased (whole arm): 9 (1.9) n (%) | Dose reduction/interruption: Asthenia (whole arm): 16 (3.4) n (%) | Dose reduction/interruption: Blood and lymphatic system disorders (whole arm): 16 (3.4) n (%) | Dose reduction/interruption: Blood bilirubin increased (whole arm): 20 (4.2) n (%) | Dose reduction/interruption: Decreased appetite (whole arm): 36 (7.6) n (%) | Dose reduction/interruption: Dehydration (whole arm): 6 (1.3) n (%) | Dose reduction/interruption: Diarrhea (whole arm): 36 (7.6) n (%) | Dose reduction/interruption: Dyspnea (whole arm): 8 (1.7) n (%) | Dose reduction/interruption: Edema peripheral (whole arm): 6 (1.3) n (%) | Dose reduction/interruption: Esophageal varices hemorrhage (whole arm): 5 (1.1) n (%) | Dose reduction/interruption: Fatigue (whole arm): 27 (5.7) n (%) | Dose reduction/interruption: Gamma-glutamyltransferase increased (whole arm): 7 (1.5) n (%) | Dose reduction/interruption: Gastrointestinal disorders (whole arm): 87 (18.3) n (%) | Dose reduction/interruption: General disorders and administration site conditions (whole arm): 67 (14.1) n (%) | Dose reduction/interruption: Hepatic encephalopathy (whole arm): 20 (4.2) n (%) | Dose reduction/interruption: Hepatic function abnormal (whole arm): 2 (0.4) n (%) | Dose reduction/interruption: Hepatobiliary disorders (whole arm): 27 (5.7) n (%) | Dose reduction/interruption: Hypertension (whole arm): 29 (6.1) n (%) | Dose reduction/interruption: Hyponatremia (whole arm): 5 (1.1) n (%) | Dose reduction/interruption: Investigations (whole arm): 81 (17.0) n (%) | Dose reduction/interruption: Malaise (whole arm): 5 (1.1) n (%) | Dose reduction/interruption: Metabolism and nutrition disorders (whole arm): 52 (10.9) n (%) | Dose reduction/interruption: Musculoskeletal and connective tissue disorders (whole arm): 18 (3.8) n (%) | Dose reduction/interruption: Myalgia (whole arm): 5 (1.1) n (%) | Dose reduction/interruption: Nausea (whole arm): 16 (3.4) n (%) | Dose reduction/interruption: Nervous system disorders (whole arm): 35 (7.4) n (%) | Dose reduction/interruption: Neutropenia (whole arm): 6 (1.3) n (%) | Dose reduction/interruption: Neutrophil count decreased (whole arm): 11 (2.3) n (%) | Dose reduction/interruption: Palmar-plantar erythrodysesthesia syndrome (whole arm): 25 (5.3) n (%) | Dose reduction/interruption: Platelet count decreased (whole arm): 22 (4.6) n (%) | Dose reduction/interruption: Proteinuria (whole arm): 33 (6.9) n (%) | Dose reduction/interruption: Pyrexia (whole arm): 12 (2.5) n (%) | Dose reduction/interruption: Rash (whole arm): 2 (0.4) n (%) | Dose reduction/interruption: Rash maculo-papular (whole arm): 0 (0.0) n (%) | Dose reduction/interruption: Renal and urinary disorders (whole arm): 40 (8.4) n (%) | Dose reduction/interruption: Respiratory, thoracic and mediastinal disorders (whole arm): 16 (3.4) n (%) | Dose reduction/interruption: Skin and subcutaneous tissue disorders (whole arm): 28 (5.9) n (%) | Dose reduction/interruption: Stomatitis (whole arm): 6 (1.3) n (%) | Dose reduction/interruption: Thrombocytopenia (whole arm): 6 (1.3) n (%) | Dose reduction/interruption: Vascular disorders (whole arm): 33 (6.9) n (%) | Dose reduction/interruption: Vomiting (whole arm): 12 (2.5) n (%) | Dose reduction/interruption: Weight decreased (whole arm): 20 (4.2) n (%) | Dose reduction/interruption: White blood cell count decreased (whole arm): 6 (1.3) n (%) | Subjects with Any TEAEs (whole arm): 470 (98.7) n (%) | Subjects with any TEAEs leading to Dose Reduction or Interruption (whole arm): 294 (61.8) n (%) | TEAE: Abdominal pain (whole arm): 81 (17.0) n (%) | TEAE: Abdominal pain upper (whole arm): 58 (12.2) n (%) | TEAE: Alanine aminotransferase increased (whole arm): 53 (11.1) n (%) | TEAE: Alopecia (whole arm): 14 (2.9) n (%) | TEAE: Ascites (whole arm): 68 (14.3) n (%) | TEAE: Aspartate aminotransferase increased (whole arm): 65 (13.7) n (%) | TEAE: Asthenia (whole arm): 54 (11.3) n (%) | TEAE: Back pain (whole arm): 50 (10.5) n (%) | TEAE: Blood bilirubin increased (whole arm): 71 (14.9) n (%) | TEAE: Constipation (whole arm): 76 (16.0) n (%) | TEAE: Decreased appetite (whole arm): 162 (34.0) n (%) | TEAE: Diarrhea (whole arm): 184 (38.7) n (%) | TEAE: Dysphonia (whole arm): 113 (23.7) n (%) | TEAE: Edema peripheral (whole arm): 66 (13.9) n (%) | TEAE: Fatigue (whole arm): 141 (29.6) n (%) | TEAE: Hypertension (whole arm): 201 (42.2) n (%) | TEAE: Hypothyroidism (whole arm): 78 (16.4) n (%) | TEAE: Nausea (whole arm): 93 (19.5) n (%) | TEAE: Palmar-plantar erythrodysesthesia syndrome (whole arm): 128 (26.9) n (%) | TEAE: Platelet count decreased (whole arm): 87 (18.3) n (%) | TEAE: Proteinuria (whole arm): 117 (24.6) n (%) | TEAE: Pyrexia (whole arm): 69 (14.5) n (%) | TEAE: Rash (whole arm): 46 (9.7) n (%) | TEAE: Stomatitis (whole arm): 45 (9.5) n (%) | TEAE: Vomiting (whole arm): 77 (16.2) n (%) | TEAE: Weight decreased (whole arm): 147 (30.9) n (%)
